In article PMC12959773 (Protein & Cell, 2025):
Substitutions are numbered along the chain they refer to.

What was measured:
[1] = target: T1, SLC7A13-SLC3A1 complex (Homo sapiens, UniProt Q8TCU3, C223A); test: [2H]-cystine uptake, isotope tracking; format: cell-based; conditions: HEK293 cells transfected with SLC7A13 and SLC3A1; labelled compound
T1 construct: heterodimeric light/heavy chain transporter, dimer of heterodimers; ectopically expressed in HEK293T / HEK293 cells (Expi293 for cryo-EM); with Amino acid transporter heavy chain SLC3A1
T1 sequence (Q8TCU3 1-470 C223A): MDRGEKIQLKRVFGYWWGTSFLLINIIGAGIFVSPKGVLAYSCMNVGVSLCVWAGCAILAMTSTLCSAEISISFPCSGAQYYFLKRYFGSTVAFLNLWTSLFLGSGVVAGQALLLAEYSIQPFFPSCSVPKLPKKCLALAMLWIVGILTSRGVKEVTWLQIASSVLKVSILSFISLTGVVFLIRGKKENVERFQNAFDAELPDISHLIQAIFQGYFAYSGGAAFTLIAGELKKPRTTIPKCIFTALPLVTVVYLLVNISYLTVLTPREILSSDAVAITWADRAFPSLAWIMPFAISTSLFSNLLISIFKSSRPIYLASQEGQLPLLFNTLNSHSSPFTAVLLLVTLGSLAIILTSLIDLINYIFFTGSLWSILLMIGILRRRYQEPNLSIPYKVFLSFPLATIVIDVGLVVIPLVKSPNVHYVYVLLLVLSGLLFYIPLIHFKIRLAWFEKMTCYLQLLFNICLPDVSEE
T1 sequence (Q07837 1-685 partner): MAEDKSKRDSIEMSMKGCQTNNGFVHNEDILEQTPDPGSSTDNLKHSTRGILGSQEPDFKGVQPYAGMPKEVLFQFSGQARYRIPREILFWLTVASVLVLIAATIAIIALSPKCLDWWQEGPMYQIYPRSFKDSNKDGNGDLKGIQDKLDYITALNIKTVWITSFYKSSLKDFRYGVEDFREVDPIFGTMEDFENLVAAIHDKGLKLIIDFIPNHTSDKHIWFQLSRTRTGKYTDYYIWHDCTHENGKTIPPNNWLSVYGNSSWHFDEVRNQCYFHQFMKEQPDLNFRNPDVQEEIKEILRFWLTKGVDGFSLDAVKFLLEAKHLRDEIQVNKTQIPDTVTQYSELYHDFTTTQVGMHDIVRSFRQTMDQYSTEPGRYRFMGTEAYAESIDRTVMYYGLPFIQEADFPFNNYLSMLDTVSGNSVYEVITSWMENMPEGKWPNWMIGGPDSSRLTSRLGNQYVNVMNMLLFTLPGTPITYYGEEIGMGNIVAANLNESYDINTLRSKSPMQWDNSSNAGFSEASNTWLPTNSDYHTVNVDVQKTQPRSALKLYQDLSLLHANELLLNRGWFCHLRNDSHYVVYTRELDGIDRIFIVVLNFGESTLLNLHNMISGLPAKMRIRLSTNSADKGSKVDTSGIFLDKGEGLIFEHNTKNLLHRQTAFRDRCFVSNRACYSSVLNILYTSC

[2] = target: T2, SLC7A13-SLC3A1 complex (Homo sapiens, UniProt Q8TCU3, S306A); test: [2H]-cystine uptake, isotope tracking; format: cell-based; conditions: HEK293 cells transfected with SLC7A13 and SLC3A1; labelled compound
T2 construct: heterodimeric light/heavy chain transporter, dimer of heterodimers; ectopically expressed in HEK293T / HEK293 cells (Expi293 for cryo-EM); with Amino acid transporter heavy chain SLC3A1
T2 sequence (Q8TCU3 1-470 S306A): T1 sequence (Q8TCU3 1-470 C223A) with A223C, S306A
T2 sequence (Q07837 1-685 partner): T1 sequence (Q07837 1-685 partner)

[3] = target: T3, SLC7A9-SLC3A1 complex (Homo sapiens, UniProt P82251); test: microscale thermophoresis; conditions: read-out: binding affinity
T3 construct: heterodimeric light/heavy chain transporter, dimer of heterodimers; ectopically expressed in HEK293T cells; with Amino acid transporter heavy chain SLC3A1
T3 sequence (P82251 1-487): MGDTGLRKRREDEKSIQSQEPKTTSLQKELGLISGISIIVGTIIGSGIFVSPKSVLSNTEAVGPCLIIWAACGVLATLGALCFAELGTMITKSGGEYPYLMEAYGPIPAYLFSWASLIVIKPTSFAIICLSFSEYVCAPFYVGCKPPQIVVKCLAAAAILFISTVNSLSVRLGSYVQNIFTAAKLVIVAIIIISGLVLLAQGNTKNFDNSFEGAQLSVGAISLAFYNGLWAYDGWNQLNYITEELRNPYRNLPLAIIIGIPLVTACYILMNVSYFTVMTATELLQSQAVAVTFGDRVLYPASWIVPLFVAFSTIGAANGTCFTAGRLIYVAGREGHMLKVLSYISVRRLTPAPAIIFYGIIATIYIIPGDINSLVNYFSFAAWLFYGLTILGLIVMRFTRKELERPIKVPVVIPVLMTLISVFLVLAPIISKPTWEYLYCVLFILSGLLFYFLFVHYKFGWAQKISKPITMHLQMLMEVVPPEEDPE
T3 sequence (Q07837 1-685 partner): T1 sequence (Q07837 1-685 partner)

Compound: N[C@@H](CSSC[C@H](N)C(=O)O)C(=O)O [cystine]
- cystine uptake [1]: mutation in any of the seven SLC7A13-specific residues to alanine significantly reduced SLC7A13’s transporter activities
- cystine uptake [2]: mutation in any of the seven SLC7A13-specific residues to alanine significantly reduced SLC7A13’s transporter activities
- Kd [3]: 107 ± 33.5 µM
